{
  "source": "patent US20100297157A1",
  "about": "“VACCINE THERAPY FOR CHOROIDAL NEOVASCULARIZATION” (priority 2007, published 2010)",
  "key": {"CNV lesions [1]": {"tested_on": "CNV lesions", "assay": "Evaluation of the grade of CNV by fluorescein angiography (leakage from laser-induced CNV lesions)", "format": "in vivo, mice expressing human HLA-A*0201", "protocol": "(§1) C57bl/6 mice with body weight of 20 g to 25 g were obtained from CLEA Japan (Tokyo, Japan). All experiments were conducted in accordance with the Animal Care and Use Committee and the Statement for the Use of Animals in Ophthalmic and Vision Research by the Association for Research in Vision and Opthalmology. Mice used in the experiments express human HLA-A*0201.\n(§2) The mice were separated into three groups. PBS, an immunity adjuvant (incomplete Freund's adjuvant (IFA)), or a suspension of a human VEGF receptor 2-derived antigenic peptide and IFA was injected subcutaneously into the axillae twice (day 0 and day 10). […] Subsequently, on day 20, CNV was induced at three sites in both eyes using a semiconductor laser set to φ 200 μm, 200 mW, and 0.02 seconds.\n(§3) Experimental CNV was induced as described elsewhere with minor modifications. In short, general anesthesia was induced with an intraperitoneal injection (1 mL/kg) of a mixture (1:1) of ketamine hydrochloride (Ketalar®, Sankyo, Tokyo, Japan) and xylazine hydrochloride (Celactal®, Bayer, Tokyo, Japan). The pupil was dilated using one drop of 0.5% tropicamide (Mydrin® M, Santen Pharmaceutical, Osaka, Japan) for photocoagulation. Six laser photocoagulations were applied to each eye between the major retinal vessels around the optic disc with a diode laser photocoagulator (DC-3000®, NIDEK, Osaka, Japan) and a slit lamp delivery system (SL150, Topcon, Tokyo, Japan) at a spot size of […], duration of 0.02 seconds, and intensity of 200 mW.\nThree and seven days after CNV induction (on day 23 and day 27), a total of 169 animals were used to examine the effect on leakage from the CNV lesions (on the third day, the number of animals from the control group, low-dose group, and high-dose group was 41, 34, and 18, respectively; on the seventh day, the number of animals from the control group, low-dose group, and high-dose group was 51, 15, and 10, respectively). […]\n(§4) The fluorescein fluorescent fundus angiography scores were evaluated using Mann-Whitney U test. The size of CNV lesion was evaluated by ANOVA followed by Dunnett's post hoc test. […]"}, "CNV lesions [2]": {"tested_on": "CNV lesions", "assay": "Measurement of the CNV size by choroidal flat mount", "format": "in vivo, mice expressing human HLA-A*0201", "protocol": "as §1, §2, §3\nA total of 36 mice were used for choroidal flat mount analysis (the number of mice from each group on the third day and the seventh day was 4 and 8, respectively). Three days and seven days after laser treatment, the size of CNV lesion was evaluated using choroidal flat mounts as previously described. The mice were anesthetized and perfused with 1 mL of phosphate buffered saline (PBS) containing 50 mg/mL FITC-conjugated dextran (4.4 kDa, 50 mg/kg body weight; Sigma). Then, the eyes were enucleated, and the cornea and lens were removed, and the entire retina was carefully dissected from the eye cup. Radial cuts were made from the edges of the equator, and the eyecup was flat-mounted on a glass slide with the sclera facing down. The flat-mounted sections were observed under a fluorescence microscope (Olympus DPSO), and the images were captured using a CCD camera. The data were imported into a computer using a software system (Studio lite). […] The data were expressed as mean±standard error.\nas §4"}, "tumor model": {"tested_on": "tumor model", "conditions": "cited from earlier work"}, "VEGF": {"tested_on": "VEGF", "assay": "VEGF up-regulation in experimental CNV", "conditions": "in vivo"}, "[3]": {"conditions": "seventh day, low-dose group vs control group"}},
  "data": [
    {"sequence": "VIAMFFWLL (IFA emulsion; listed as Homo sapiens) [nine amino acids from position 773 of human VEGFR-2; injected as a suspension with IFA]", "values": [
      {"measurement": "fluorescein leakage from the CNV lesions", "setting": "CNV lesions [1]; seventh day, high-dose group vs control", "result": "lower"},
      {"measurement": "leakage from CNV lesions", "setting": "CNV lesions [1]; [3]", "result": "not statistically significant, the leakage from CNV lesions was lower"},
      {"measurement": "degree of fluorescein leakage from CNV lesions", "setting": "CNV lesions [1]; third day after CNV induction, low-dose and high-dose groups vs control group, s.c. injection day 0 and day 10", "result": "no difference was observed"},
      {"measurement": "CNV growth", "setting": "CNV lesions [2]; in vivo, effect observed only on the seventh day and not on the third day", "result": "inhibits CNV growth"},
      {"measurement": "CNV lesion size", "setting": "CNV lesions [2]; seventh day, high-dose group vs control group", "result": "significantly decreased"},
      {"measurement": "CNV lesion size", "setting": "CNV lesions [2]; [3]", "result": "significantly decreased"},
      {"measurement": "CNV lesion size", "setting": "CNV lesions [2]; third day, low-dose and high-dose groups vs control group", "result": "No difference was observed"},
      {"measurement": "antiangiogenic effect", "setting": "tumor model", "result": "confirmed to have antiangiogenic effect"},
      {"measurement": "VEGF up-regulation", "setting": "VEGF", "result": "suppresses VEGF up-regulation"}
    ]}
  ]
}
